Paper PMC7077986, “Molecular basis for catabolism of the abundant metabolite trans-4-hydroxy-L-proline by a microbial glycyl radical enzyme” (eLife, 2020)

Columns and labels:
[1] = target: T1, HypD (trans-4-hydroxy-L-proline dehydratase; CdHypD) (Clostridioides difficile, UniProt A0A031WDE4); experiment: X-ray crystal structure, […] Å; type: binding; conditions: unactivated enzyme; active site; 4 mM Hyp in crystallization buffer, 100 mM Hyp in cryoprotectant, pH 7.5, 21 °C
T1 construct: gene pflD; full length, N-terminal hexahistidine tag (pET28a-CdHypD), E. coli BL21-CodonPlus(DE3)-RIL (delta proC for assays); dimeric; for activity the Gly765 radical was installed by HypD-AE
T1 sequence (A0A031WDE4 1-789): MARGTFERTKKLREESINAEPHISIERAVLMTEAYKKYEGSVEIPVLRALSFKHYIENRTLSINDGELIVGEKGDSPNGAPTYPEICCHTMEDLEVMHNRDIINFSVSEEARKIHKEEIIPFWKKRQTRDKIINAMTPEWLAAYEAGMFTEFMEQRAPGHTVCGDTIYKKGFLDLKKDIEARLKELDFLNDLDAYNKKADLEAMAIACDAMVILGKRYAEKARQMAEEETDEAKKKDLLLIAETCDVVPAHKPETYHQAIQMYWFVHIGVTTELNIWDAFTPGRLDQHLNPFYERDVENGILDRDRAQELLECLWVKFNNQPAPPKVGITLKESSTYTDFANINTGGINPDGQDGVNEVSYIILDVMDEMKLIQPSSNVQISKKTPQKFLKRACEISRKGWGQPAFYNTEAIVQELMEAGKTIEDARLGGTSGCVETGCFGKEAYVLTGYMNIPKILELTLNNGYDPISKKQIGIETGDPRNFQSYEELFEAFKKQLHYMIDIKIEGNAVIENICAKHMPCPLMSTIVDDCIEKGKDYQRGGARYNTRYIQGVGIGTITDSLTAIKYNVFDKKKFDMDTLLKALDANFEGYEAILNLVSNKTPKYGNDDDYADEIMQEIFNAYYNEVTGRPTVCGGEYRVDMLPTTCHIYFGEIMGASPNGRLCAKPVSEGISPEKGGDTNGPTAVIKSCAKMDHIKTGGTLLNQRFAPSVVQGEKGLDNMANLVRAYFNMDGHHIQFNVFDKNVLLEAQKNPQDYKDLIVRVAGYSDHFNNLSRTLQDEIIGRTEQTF

[2] = target: the molecule itself; experiment: crystal structure; unactivated wild-type HypD with intact N-terminal hexahistidine tag, crystallised aerobically, hanging drop, 21°C, 14% PEG 3350, 100 mM KCl, 100 mM HEPES pH 7.5; glycerol-bound (2.05 Å) and Hyp-bound (2.52 Å) crystals; eight chains in the asymmetric unit

Molecule | X-ray crystal structure, 2.52 Å [1] | stoichiometry N [2]
O=C(O)[C@@H]1C[C@@H](O)CN1 [Hyp] | In the active site of the Hyp-bound HypD structure, electron density was observed for the substrate | –
trans-4-hydroxy-L-proline dehydratase (HypD) from Clostridioides difficile 70-100-2010, wild type, unactivated (enzyme, HypD (trans-4-hydroxy-L-proline dehydratase), glycyl radical enzyme, gene amplified from C. difficile 70-100-2010 genomic DNA; UniProt A0A031WDE4; all residues other than the hexahistidine tag are seen in the structures; Crystallised with the N-terminal hexahistidine tag intact; also called Hyp dehydratase; CdHypD; source: E. coli BL21-CodonPlus(DE3)-RIL, pET28a-CdHypD, purified (Ni-NTA); not …) MARGTFERTKKLREESINAEPHISIERAVLMTEAYKKYEGSVEIPVLRALSFKHYIENRTLSINDGELIVGEKGDSPNGAPTYPEICCHTMEDLEVMHNRDIINFSVSEEARKIHKEEIIPFWKKRQTRDKIINAMTPEWLAAYEAGMFTEFMEQRAPGHTVCGDTIYKKGFLDLKKDIEARLKELDFLNDLDAYNKKADLEAMAIACDAMVILGKRYAEKARQMAEEETDEAKKKDLLLIAETCDVVPAHKPETYHQAIQMYWFVHIGVTTELNIWDAFTPGRLDQHLNPFYERDVENGILDRDRAQELLECLWVKFNNQPAPPKVGITLKESSTYTDFANINTGGINPDGQDGVNEVSYIILDVMDEMKLIQPSSNVQISKKTPQKFLKRACEISRKGWGQPAFYNTEAIVQELMEAGKTIEDARLGGTSGCVETGCFGKEAYVLTGYMNIPKILELTLNNGYDPISKKQIGIETGDPRNFQSYEELFEAFKKQLHYMIDIKIEGNAVIENICAKHMPCPLMSTIVDDCIEKGKDYQRGGARYNTRYIQGVGIGTITDSLTAIKYNVFDKKKFDMDTLLKALDANFEGYEAILNLVSNKTPKYGNDDDYADEIMQEIFNAYYNEVTGRPTVCGGEYRVDMLPTTCHIYFGEIMGASPNGRLCAKPVSEGISPEKGGDTNGPTAVIKSCAKMDHIKTGGTLLNQRFAPSVVQGEKGLDNMANLVRAYFNMDGHHIQFNVFDKNVLLEAQKNPQDYKDLIVRVAGYSDHFNNLSRTLQDEIIGRTEQTF | – | 2
